Results on six compounds are retold here after ChEMBL document CHEMBL2417543, “Potential neuroprotective flavonoid-based inhibitors of CDK5/p25 from Rhus parviflora” (Bioorg Med Chem Lett, 2013).

Assay type in all cases: protein-complex assay
Experiment [1] deals with T1, Cyclin-dependent kinase 5/CDK5 activator 1 (Homo sapiens, UniProt Q00535). Description: Inhibition of CDK5/p25 (unknown origin) after 30 mins by SDS-PAGE analysis.
Experiment [2] deals with T2, Cyclin-dependent kinase 5/CDK5 activator 1 (Homo sapiens) (UniProt Q00535+Q15078). The experiment is described as follows: Inhibition of CDK5/p25 (unknown origin)-mediated incorporation of gamma33P into substrate assessed as change in enzyme activity at 50 uM after 20 mins by scintillation counting analysis in presence of 33P-ATP relative to negative control. Also on record: scale not given: the % may be the effect or the level left.
T2 sequence (Q00535 whole entry): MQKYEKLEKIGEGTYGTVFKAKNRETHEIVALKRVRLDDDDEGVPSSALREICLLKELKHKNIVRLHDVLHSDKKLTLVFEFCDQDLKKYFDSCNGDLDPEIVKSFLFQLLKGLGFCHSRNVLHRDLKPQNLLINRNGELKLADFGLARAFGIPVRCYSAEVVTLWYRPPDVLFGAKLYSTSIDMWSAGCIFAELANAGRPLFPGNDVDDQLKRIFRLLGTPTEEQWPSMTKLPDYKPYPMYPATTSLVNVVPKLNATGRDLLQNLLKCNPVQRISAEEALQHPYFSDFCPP
T2 sequence (Q15078 99-307 partner limits assumed): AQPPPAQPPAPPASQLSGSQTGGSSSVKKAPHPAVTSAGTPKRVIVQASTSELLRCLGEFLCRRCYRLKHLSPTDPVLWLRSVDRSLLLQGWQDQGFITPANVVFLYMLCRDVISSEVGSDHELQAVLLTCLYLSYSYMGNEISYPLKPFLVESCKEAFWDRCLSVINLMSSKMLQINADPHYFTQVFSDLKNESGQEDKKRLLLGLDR

The target of experiment [3] is T2, Cyclin-dependent kinase 5/CDK5 activator 1 (Homo sapiens). The experiment is described as follows: Inhibition of CDK5/p25 (unknown origin)-mediated incorporation of gamma33P into substrate assessed as change in enzyme activity at 5 uM after 20 mins by scintillation counting analysis in presence of 33P-ATP relative to negative control. Also on record: scale not given: the % may be the effect or the level left.

The target is the same in experiment [4]. The experiment is described as follows: Inhibition of CDK5/p25 (unknown origin)-mediated incorporation of gamma33P into substrate assessed as change in enzyme activity at 0.5 uM after 20 mins by scintillation counting analysis in presence of 33P-ATP relative to negative control. Set-up: scale not given: the % may be the effect or the level left.
Experiment [5] shares this target. Description: Inhibition of CDK5/p25 (unknown origin)-mediated incorporation of gamma33P into substrate assessed as change in enzyme activity at 0.05 uM after 20 mins by scintillation counting analysis in presence of 33P-ATP relative to negative control. Also on record: scale not given: the % may be the effect or the level left.
For experiment [6] the target is unchanged. Description: Inhibition of CDK5/p25 (unknown origin)-mediated incorporation of gamma33P into substrate assessed as change in enzyme activity at 0.005 uM after 20 mins by scintillation counting analysis in presence of 33P-ATP relative to negative control. Set-up: scale not given: the % may be the effect or the level left.
The target in experiment [7] is T1, Cyclin-dependent kinase 5/CDK5 activator 1. Description: Inhibition of CDK5/p25 (unknown origin)-mediated incorporation of gamma33P into substrate after 20 mins by scintillation counting analysis in presence of 33P-ATP.

Each structure is given as a SMILES string. Some results are limits rather than exact numbers.

T1 sequence (Q00535 whole entry): as the sequence (Q00535 whole entry) above
T1 sequence (Q15078 whole entry, further chain): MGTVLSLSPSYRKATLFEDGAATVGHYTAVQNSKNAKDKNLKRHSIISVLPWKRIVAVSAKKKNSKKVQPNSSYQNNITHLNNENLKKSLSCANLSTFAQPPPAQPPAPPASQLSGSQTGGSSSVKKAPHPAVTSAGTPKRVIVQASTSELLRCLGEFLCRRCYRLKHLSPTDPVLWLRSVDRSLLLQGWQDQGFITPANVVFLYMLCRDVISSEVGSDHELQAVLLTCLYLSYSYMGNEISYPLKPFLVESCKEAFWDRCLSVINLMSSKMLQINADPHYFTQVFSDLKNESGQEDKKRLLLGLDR

Turning to `O=C1/C(=C/c2ccc(O)c(O)c2)Oc2cc(O)ccc21` [SULFURETIN], the IC50 in experiment [1] worked out at 37 µM.

`O=C1/C(=C/c2ccc(O)c(O)c2)Oc2cc(O)cc(O)c21` [AUREUSIDIN]: the Activity in experiment [2] is -88%; in experiment [3] it was -47%; in experiment [4], -20%; in experiment [5] it was -2%; in experiment [6], 0%. Moreover, the IC50 in experiment [7] amounted to 4.81 µM; in experiment [1], 3.5 µM.

In the case of `O=C1c2c(O[C@@H]3O[C@H](CO)[C@@H](O)[C@H](O)[C@H]3O)cc(O)cc2OC1(O)Cc1ccc(O)cc1` (some centres undefined), the Activity in experiment [2] was -15%; in experiment [3], -7%; in experiment [4], 2%; in experiment [5] it was 1%; in experiment [6], -3%. Besides, the IC50 in experiment [7] was greater than 50 µM; in experiment [1], 44.4 µM.

In turn, `O=c1cc(-c2ccc(O)cc2)oc2c(-c3c(O)cc(O)c4c(=O)cc(-c5ccc(O)cc5)oc34)c(O)cc(O)c12` [CUPRESSUFLAVONE] returned an IC50 in experiment [1] of 9.29 µM.

With `O=c1c(O[C@@H]2O[C@H](CO)[C@H](O)[C@H](O)[C@H]2O)c(-c2ccc(O)c(O)c2)oc2cc(O)cc(O)c12` [HYPEROSIDE], the midpoint of inhibition in experiment [1], the IC50, lay at 10.3 µM.

For `O=C1/C(=C/c2ccc(O)c(O)c2)Oc2cc(O[C@@H]3O[C@H](CO)[C@@H](O)[C@H](O)[C@H]3O)cc(O)c21`, the Activity in experiment [2] is -65%; in experiment [3], -20%; in experiment [4] it was -5%; in experiment [5] it was -4%; in experiment [6], -2%. Also, the figures for the IC50 in experiment [7] and in experiment [1] were 24.3 µM and 22.3 µM, respectively.

What is called IC50 is the concentration that gives 50% inhibition.
